Measured values taken from patent US7279494B2, “Antimicrobial [3.1.0] bicyclohexylphenyl-oxazolidinone derivatives and analogues” (Pfizer Inc., priority 2003, dated 2007).
In brackets after ≈: the same amount, converted by molar mass. Like-named read-outs stand apart in the source and are kept apart here.

Assays:
Type in all cases: cell-based
H. influenzae 30063 = assay: MIC by standard agar dilution, H. influenzae 30063
Excerpt: (§1) The in vitro activity of compounds of the subject invention may be assessed by standard testing procedures such as the determination of minimum inhibitory concentration (MIC) by agar dilution as described in “Approved Standard. Methods for Dilution Antimicrobial Susceptibility Tests for Bacteria that Grow Aerobically,” 3rd ed., published 1993 by the National Committee for Clinical Laboratory standards, Villanova, Pa., USA.
(§2) The in vitro MICs of test compounds may be determined by a standard agar dilution method. A stock drug solution of each analog is prepared in a preferred solvent, usually DMSO:H2O (1:3). Serial 2-fold dilutions of each sample are made using 1.0 mL aliquots of sterile distilled water. To each 1.0 mL aliquot of drug is added 9 mL of molten Mueller Hinton agar medium. The drug-supplemented agar is mixed, poured into 15×100 mm petri dishes, and allowed to solidify and dry prior to inoculation.
(§3) Vials of each of the test organisms are maintained frozen in the vapor phase of a liquid nitrogen freezer. Test cultures are grown overnight at 35° C. on the medium appropriate for the organism. Colonies are harvested with a sterile swab, and cell suspensions are prepared in Trypticase Soy broth (TSB) to equal the turbidity of a 0.5 McFarland standard. A 1:20 dilution of each suspension is made in TSB. The plates containing the drug supplemented agar are inoculated with a 0.001 mL drop of the cell suspension using a Steers replicator, yielding approximately 10^4 to 10^5 cells per spot. The plates are incubated overnight at 35° C.
(§4) Following incubation the Minimum Inhibitory Concentration (MIC μg/mL), the lowest concentration of drug that inhibits visible growth of the organism, is read and recorded.

S. pneumoniae UC9912 = assay: MIC by standard agar dilution, S. pneumoniae UC9912; conditions: incubated overnight at 35° C.; for MIC: Streptococcus pneumoniae, UC9912, Mueller Hinton agar
Excerpt: as §1, §2, §3, §4

S. aureus UC9213 = assay: MIC by standard agar dilution, S. aureus UC9213; conditions: incubated overnight at 35° C.; for MIC: Staphylococcus aureus, UC9213, Mueller Hinton agar
Excerpt: as §1, §2, §3, §4

[1] = Haemophilus influenzae, 30063, agar dilution, Mueller Hinton agar, incubated overnight at 35° C., read-out: H. influenzae 30063 MIC

| Structure (SMILES) | MIC (H. influenzae 30063; [1]) [µg/mL] | MIC (S. pneumoniae UC9912) [µg/mL] | MIC (S. aureus UC9213) [µg/mL] | S. pneumoniae UC9912 MIC (S. pneumoniae UC9912; Mueller Hinton agar) [µg/mL] | S. aureus UC9213 MIC (S. aureus UC9213; Mueller Hinton agar) [µg/mL] | MIC (H. influenzae 30063; Haemophilus influenzae, 30063, read-out: H. influenzae 30063 MIC) [µg/mL] |
| --- | --- | --- | --- | --- | --- | --- |
| CC(=O)NC[C@H]1CN(c2ccc([C@H]3[C@@H]4CN(C(=O)CO)C[C@@H]43)cc2)C(=O)O1 [Example 17, N-[((5S)-3-{4-[exo-(1R,5S)-3-glycoloyl-3-azabicyclo[3.1.0]hex-6-yl]phenyl}-2-oxo-1,3-oxazolidin-5-yl)methyl]acetamide] | 8 (≈ 21.4 µM) | 2 (≈ 5.36 µM) | 4 (≈ 10.7 µM) | – | – | – |
| CC(=O)NC[C@H]1CN(c2ccc([C@H]3[C@@H]4CN(/C(N)=N/C#N)C[C@@H]43)c(F)c2)C(=O)O1 [Example 74, exo-(1R,5S)-N′-cyano-6-(4-{(5S)-5-[(acetylamino)methyl]-2-oxo-1,3-oxazolidin-3-yl}-2-fluorophenyl)-3-azabicyclo[3.1.0]hexane-3-carboximidamide] | 4 (≈ 9.99 µM) | 1 (≈ 2.5 µM) | 1 (≈ 2.5 µM) | – | – | – |
| CCC(=O)NC[C@H]1CN(c2ccc([C@H]3[C@@H]4CN(C(=O)[C@@H](O)CO)C[C@@H]43)c(F)c2)C(=O)O1 [Example 28, N-[((5S)-3-{3-fluoro-4-[exo-(1R,5S)-3-((2S)-2,3-dihydroxypropanoyl)-3-azabicyclo[3.1.0]hex-6-yl]phenyl}-2-oxo-1,3-oxazolidin-5-yl)methyl]propanamide] | 8 (≈ 18.4 µM) | 4 (≈ 9.19 µM) | 4 (≈ 9.19 µM) | – | – | – |
| CC(=O)NC[C@H]1CN(c2ccc([C@H]3[C@@H]4CN(C(=O)C(F)F)C[C@@H]43)c(F)c2)C(=O)O1 [Example 34, N-[((5S)-3-{3-fluoro-4-[exo-(1R,5S)-3-difluoroacetyl-3-azabicyclo[3.1.0]hex-6-yl]phenyl}-2-oxo-1,3-oxazolidin-5-yl)methyl]acetamide] | – | 1 (≈ 2.43 µM) | 2 (≈ 4.86 µM) | – | – | 8 (≈ 19.4 µM) |
| N#CCC(=O)NC[C@H]1CN(c2cc(F)c([C@H]3[C@@H]4CS(=O)(=O)C[C@@H]43)c(F)c2)C(=O)O1 [Example 71, 2-cyano-N-[((5S)-3-{3,5-difluoro-4-[exo-(1R,5S)-3,3-dioxide-3-thiabicyclo[3.1.0]hex-6-yl]phenyl}-2-oxo-1,3-oxazolidin-5-yl)methyl]acetamide] | 4 (≈ 9.4 µM) | 2 (≈ 4.7 µM) | 4 (≈ 9.4 µM) | – | – | – |
| CC(=O)NC[C@H]1CN(c2ccc([C@H]3[C@@H]4CN(N(C)C)C[C@@H]43)c(F)c2)C(=O)O1 [Example 49, N-[((5S)-3-{3-fluoro-4-[exo-(1R,5S)-3-dimethylamino-3-azabicyclo[3.1.0]hex-6-yl]phenyl}-2-oxo-1,3-oxazolidin-5-yl)methyl]acetamide] | > 64 | > 64 | > 64 | – | – | – |
| CC(=O)NC[C@H]1CN(c2ccc([C@H]3[C@@H]4CN(CCC#N)C[C@@H]43)c(F)c2)C(=O)O1 [Example 48, N-[((5S)-3-{3-fluoro-4-[exo-(1R,5S)-3-(2-cyanoethyl)-3-azabicyclo[3.1.0]hex-6-yl]phenyl}-2-oxo-1,3-oxazolidin-5-yl)methyl]acetamide] | 16 (≈ 41.4 µM) | 1 (≈ 2.59 µM) | 4 (≈ 10.4 µM) | – | – | – |
| CC(=O)NC[C@H]1CN(c2ccc([C@H]3[C@@H]4CN(C(=O)[C@@H](O)CO)C[C@@H]43)c(F)c2)C(=O)O1 [Example 9, N-[((5S)-3-{3-fluoro-4-[exo-(1R,5S)-3-((2S)-2,3-dihydroxypropanoyl)-3-azabicyclo[3.1.0]hex-6-yl]phenyl}-2-oxo-1,3-oxazolidin-5-yl)methyl]acetamide] | 8 (≈ 19 µM) | 1 (≈ 2.37 µM) | 8 (≈ 19 µM) | – | – | – |
| CC(=O)NC[C@H]1CN(c2ccc([C@H]3[C@@H]4CN(C(=O)c5ccno5)C[C@@H]43)c(F)c2)C(=O)O1 [Example 37, N-[((5S)-3-{3-fluoro-4-[exo-(1R,5S)-3-(isoxazole-5-carbonyl)-3-azabicyclo[3.1.0]hex-6-yl]phenyl}-2-oxo-1,3-oxazolidin-5-yl)methyl]acetamide] | 8 (≈ 18.7 µM) | 0.5 (≈ 1.17 µM) | 1 (≈ 2.33 µM) | – | – | – |
| CCNC(=O)N1C[C@@H]2[C@H](C1)[C@H]2c1ccc(N2C[C@H](CNC(=O)CC)OC2=O)cc1F [Example 25, exo-(1R,5S)-6-(4-{(5S)-5-[(propanoylamino)methyl]-2-oxo-1,3-oxazolidin-3-yl}-2-fluorophenyl)-3-azabicyclo[3.1.0]hexane-3-ethylcarboxamide] | 32 (≈ 76.5 µM) | 4 (≈ 9.56 µM) | 8 (≈ 19.1 µM) | – | – | – |
| CCC(=O)NC[C@H]1CN(c2ccc([C@H]3[C@@H]4CN(C(=O)COC)C[C@@H]43)c(F)c2)C(=O)O1 [Example 27, N-[((5S)-3-{3-fluoro-4-[exo-(1R,5S)-3-methoxyacetyl-3-azabicyclo[3.1.0]hex-6-yl]phenayl}-2-oxo-1,3-oxazolidin-5-yl)methyl]propanamide] | 8 (≈ 19.1 µM) | 0.5 (≈ 1.19 µM) | 2 (≈ 4.77 µM) | – | – | – |
| COC(=O)N1C[C@@H]2C(c3ccc(N4C[C@H](CNC(C)=O)OC4=O)cc3F)[C@@H]2C1 (stereo partly drawn) [Example 7, methyl exo-(1R,5S)-6-(4-{(5S)-5-[(acetylamino)methyl]-2-oxo-1,3-oxazolidin-3-yl}-2-fluorophenyl)-3-azabicyclo[3.1.0]hexane-3-carboxylate] | – | – | – | 0.5 | 2 | – |

Now from value to compound, other results behind:

| MIC (H. influenzae 30063; [1]) [µg/mL] | MIC (S. pneumoniae UC9912) [µg/mL] | MIC (S. aureus UC9213) [µg/mL] | S. pneumoniae UC9912 MIC (S. pneumoniae UC9912; Mueller Hinton agar) [µg/mL] | S. aureus UC9213 MIC (S. aureus UC9213; Mueller Hinton agar) [µg/mL] | Structure (SMILES) | MIC (H. influenzae 30063; Haemophilus influenzae, 30063, read-out: H. influenzae 30063 MIC) [µg/mL] |
| --- | --- | --- | --- | --- | --- | --- |
| 16 (≈ 39.4 µM) | 2 (≈ 4.92 µM) | 4 (≈ 9.84 µM) | – | – | O=C(NC[C@H]1CN(c2ccc([C@H]3[C@@H]4C[S+]([O-])C[C@@H]43)c(F)c2)C(=O)O1)C1CCC1 (stereo partly drawn) [Example 56, N-[((5S)-3-{3-fluoro-4-[exo-(1R,5S)-3-oxido-3-thiabicyclo[3.1.0]hex-6-yl]phenyl}-2-oxo-1,3-oxazolidin-5-yl)methyl]cyclobutanecarboxamide] | – |
| 16 (≈ 38.3 µM) | 2 (≈ 4.79 µM) | 2 (≈ 4.79 µM) | – | – | CC(=O)NC[C@H]1CN(c2ccc([C@H]3[C@@H]4CN(C(=O)C5(O)CC5)C[C@@H]43)c(F)c2)C(=O)O1 [Example 31, N-[((5 S)-3-{3-fluoro-4-[exo-(1R,5S)-3-(1-hydroxy-cyclopropanecarbonyl)-3-azabicyclo[3.1.0]hex-6-yl]phenyl}-2-oxo-1,3-oxazolidin-5-yl)methyl]acetamide] | – |
| 16 (≈ 39.9 µM) | 4 (≈ 9.96 µM) | 4 (≈ 9.96 µM) | – | – | CC(=O)NC[C@H]1CN(c2ccc([C@H]3[C@@H]4CN(C(=O)C5CC5)C[C@@H]43)c(F)c2)C(=O)O1 [Example 30, N-[((5S)-3-{3-fluoro-4-[exo-(1R,5S)-3-cyclopropanecarbonyl-3-azabicyclo[3.1.0]hex-6-yl]phenyl}-2-oxo-1,3-oxazolidin-5-yl)methyl]acetamide] | – |
| 8 (≈ 20.4 µM) | 1 (≈ 2.55 µM) | 4 (≈ 10.2 µM) | – | – | N#CCC(=O)NC[C@H]1CN(c2ccc([C@H]3[C@@H]4C[S+]([O-])C[C@@H]43)c(F)c2)C(=O)O1 (stereo partly drawn) [Example 68, 2-cyano-N-[((5S)-3-{3-fluoro-4-[exo-(1R,5S)-3-oxido-3-thiabicyclo[3.1.0]hex-6-yl]phenyl}-2-oxo-1,3-oxazolidin-5-yl)methyl]acetamide] | – |
| 8 (≈ 19.5 µM) | 1 (≈ 2.44 µM) | 2 (≈ 4.87 µM) | – | – | O=C(NC[C@H]1CN(c2cc(F)c([C@H]3[C@@H]4C[S+]([O-])C[C@@H]43)c(F)c2)C(=O)O1)C1CC1 (stereo partly drawn) [Example 61, N-[((5S)-3-{3,5-difluoro-4-[exo-(1R,5S)-3-oxido-3-thiabicyclo[3.1.0]hex-6-yl]phenyl}-2-oxo-1,3-oxazolidin-5-yl)methyl]cyclopropanecarboxamide] | – |
